Source: the supplement of paper PMC8671470

Legend:
Conditions in all cases: 72 h
HL-60 [1] = assay: area under dose-response curve (viability, 1 nM-10 uM) (fraction (0-1)); higher = more sensitive
Method in brief: (§1)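 A rescreen of the full library used HL-60 cells in RPMI 1640 with 10% FBS on 384-well plates, run in duplicate at five tenfold concentrations (1–10,000 nM). Each screen included DMSO or 100 nM of one of three metabolic inhibitors and ran 72 h at 37 °C, 5% CO2. CellTiter-Glo viability was scaled between DMSO and 10 μM proteasome-inhibitor wells. Any area under the curve comes from four-parameter log-logistic fits with drc and PharmacoGx.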

SHI-1 [2] = assay: cell viability (% survival relative to DMSO control, bortezomib = 0%); higher = less cytotoxic
Method in brief: (§2)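 Fifteen myeloid leukaemia cell lines (10 AML, 5 CML) were seeded at a density titrated to the linear growth range into 384-well plates pre-printed with compounds at 1, 10, 100, 1000 or 10000 nM in duplicate. Plates were incubated for 72 h at 37 °C with 5% CO2. Viability was then read by CellTiter-Glo luminescence. Each value is percent survival averaged over the duplicates, with vehicle set to 100% and a 10 µM positive control to 0%.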

KCL-22 [3] = assay: as above
Method in brief: as §2

MV4-11 [4] = assay: as above
Method in brief: as §2

Mono-Mac-6 [5] = assay: as above
Method in brief: as §2

ML-2 [6] = assay: as above
Method in brief: as §2

KG-1 [7] = assay: as above
Method in brief: as §2

LAMA-84 [8] = assay: as above
Method in brief: as §2

BV-173 [9] = assay: as above
Method in brief: as §2

HL-60 [10] = assay: as above
Method in brief: as §2

HEL [11] = assay: as above
Method in brief: as §2

K-562 [12] = assay: as above
Method in brief: as §2

HL-60 [13] = assay: cell viability (% survival relative to DMSO control); higher = less cytotoxic
Method in brief: as §1

SHI-1 [14] = test system: SHI-1
Method in brief: (§3)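 Each of fifteen myeloid leukaemia cell lines was seeded in RPMI 1640 at a density titrated to its linear growth range. The cells were incubated for 72 h at 37 °C and 5% CO2 with compounds at five tenfold doses from 1 to 10,000 nM, in duplicate. After ATP luminescence was normalised to vehicle and to a positive control at 10 µM, four-parameter log-logistic curves were fitted. These curves gave the IC50.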

KCL-22 [15] = test system: KCL-22
Method in brief: as §3

MV4-11 [16] = test system: MV4-11
Method in brief: as §3

Mono-Mac-6 [17] = test system: Mono-Mac-6
Method in brief: as §3

KU-812 = test system: KU-812
Method in brief: as §3

ML-2 [18] = test system: ML-2
Method in brief: as §3

KG-1 [19] = test system: KG-1
Method in brief: as §3

MOLM-13 = test system: MOLM-13
Method in brief: as §3

LAMA-84 [20] = test system: LAMA-84
Method in brief: as §3

BV-173 [21] = test system: BV-173
Method in brief: as §3

HL-60 [22] = test system: HL-60
Method in brief: as §3

NOMO-1 = test system: NOMO-1
Method in brief: as §3

THP-1 = test system: THP-1
Method in brief: as §3

HEL [23] = test system: HEL
Method in brief: as §3

K-562 [24] = test system: K-562
Method in brief: as §3

O=C(Cc1cccc(OC(F)(F)F)c1)Nc1ccc(CCCCc2nnc(NC(=O)Cc3ccccn3)s2)nn1 [CB-839]
Conditions | area under dose-response curve, co-treatment: AZD3965 100 nM | area under dose-response curve, co-treatment: DMSO vehicle | area under dose-response curve, co-treatment: GSK2194069 100 nM | area under dose-response curve, co-treatment: pictilisib 100 nM | cell viability, 1 nM [%] | cell viability, 10 nM [%] | cell viability, 100 nM [%] | cell viability, 1000 nM [%] | cell viability, 10000 nM [%]
BV-173 [9] | – | – | – | – | 133 | 82.2 | 53.7 | 59.8 | 18.5
HEL [11] | – | – | – | – | 117 | 85.6 | 99.3 | 73.7 | 64.8
HL-60 [1] | 0.0553 | < 0.0301 | 0.0569 | 0.0991 | – | – | – | – | –
HL-60 [10] | – | – | – | – | 73.4 | 114 | 85.6 | 40.6 | 50.2
K-562 [12] | – | – | – | – | 145 | 105 | 85.3 | 86 | 77.7
KCL-22 [3] | – | – | – | – | 116 | 90.4 | 79.5 | 55.4 | 43.8
KG-1 [7] | – | – | – | – | 98.4 | 81.7 | 80.1 | 43 | 45.4
LAMA-84 [8] | – | – | – | – | 116 | 85.8 | 66.5 | 66.3 | 58.4
ML-2 [6] | – | – | – | – | 111 | 89.8 | 94.3 | 91.4 | 89.9
MV4-11 [4] | – | – | – | – | 108 | 86 | 71.2 | 48.1 | 51.2
Mono-Mac-6 [5] | – | – | – | – | 102 | 84.5 | 85 | 78.3 | 82
SHI-1 [2] | – | – | – | – | 109 | 103 | 99.7 | 74.9 | 68.4

cell viability [%], HL-60 [13]
Conditions | 0.001 µM | 0.01 µM | 0.1 µM | 1 µM | 10 µM
co-treatment: AZD3965 100 nM | 105 | 103.64 | 103 | 93.2 | 71.4
co-treatment: DMSO vehicle | 97.2 | 102 | 97.9 | 93.6 | 88.7
co-treatment: GSK2194069 100 nM | 103 | 94.8 | 97.4 | 94.1 | 77.9
co-treatment: pictilisib 100 nM | 100.52 | 87.5 | 78.3 | 71.08 | 54

Conditions | IC50 (cell viability) [µM]
BV-173 [21] | 0.118
HEL [23] | > 10
HL-60 [22] | 0.637
K-562 [24] | > 10
KCL-22 [15] | 0.822
KG-1 [19] | 0.638
KU-812 | > 10
LAMA-84 [20] | 9.93
ML-2 [18] | > 10
MOLM-13 | > 10
MV4-11 [16] | 0.619
Mono-Mac-6 [17] | > 10
NOMO-1 | > 10
SHI-1 [14] | > 10
THP-1 | > 10
